The source of these data is ChEMBL document CHEMBL5247612, “Medicinal chemistry strategies targeting PRMT5 for cancer therapy” (Eur J Med Chem, 2022).

Test [1] addresses T1, Protein arginine N-methyltransferase 5 (Homo sapiens, UniProt O14744). The experiment in a line: Inhibition of PRMT5 human PRMT5 using [3H]-SAM as substrate by radioactive methylation assay.
The target in test [2] is T1, Protein arginine N-methyltransferase 5. The experiment in a line: Inhibition of PRMT5 (unknown origin) assessed as enzymatic activity by AlphaLISA assay.
Test [3] shares this target. Briefly: Inhibition of human PRMT5 using H4R3 S1ac and [3H]-SAM as substrate by AlphaLISA assay. Background: Bead proximity is the source of the signal in Alpha formats.
For test [4], the system named is A-375. The experiment in a line: Antiproliferation activity against human A-375 cells assessed as cell growth inhibition. The class given is functional, cell-based.
Test [5] has as its target T2, Protein arginine N-methyltransferase 1 (Homo sapiens, UniProt Q99873). Briefly: Inhibition of human PRMT1 using H4R3 S1ac and [3H]-SAM as substrate by AlphaLISA assay.
For test [6], the target named is T3, Histone-arginine methyltransferase CARM1 (Homo sapiens, UniProt Q86X55).
T3 sequence (Q86X55 whole entry): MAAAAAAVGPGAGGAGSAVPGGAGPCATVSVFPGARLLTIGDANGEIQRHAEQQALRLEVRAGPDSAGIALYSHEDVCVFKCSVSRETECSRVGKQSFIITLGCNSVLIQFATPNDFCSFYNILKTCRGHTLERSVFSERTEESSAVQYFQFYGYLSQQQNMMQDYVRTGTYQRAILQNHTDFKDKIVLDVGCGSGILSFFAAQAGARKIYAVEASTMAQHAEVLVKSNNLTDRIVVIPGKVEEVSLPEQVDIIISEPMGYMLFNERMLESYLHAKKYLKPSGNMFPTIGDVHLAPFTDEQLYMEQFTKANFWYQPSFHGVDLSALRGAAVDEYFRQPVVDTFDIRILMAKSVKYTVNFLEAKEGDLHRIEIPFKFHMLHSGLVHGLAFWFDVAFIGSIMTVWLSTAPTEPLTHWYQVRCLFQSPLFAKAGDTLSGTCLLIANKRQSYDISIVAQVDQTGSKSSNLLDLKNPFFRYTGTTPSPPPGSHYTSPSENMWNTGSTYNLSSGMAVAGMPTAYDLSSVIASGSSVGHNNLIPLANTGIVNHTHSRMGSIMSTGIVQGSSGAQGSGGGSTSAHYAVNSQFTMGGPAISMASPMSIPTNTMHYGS
Briefly: Inhibition of human PRMT4 by fluorescence-based SAHH-coupled assay.

The nature of test [7]: Inhibition of Trypanosoma brucei PRMT7 by fluorescence-based SAHH-coupled assay.
For test [8], the target named is T1, Protein arginine N-methyltransferase 5. The experiment in a line: Inhibition of human PRMT5 by fluorescence-based SAHH-coupled assay.
Test [9] has as its target T2, Protein arginine N-methyltransferase 1. Briefly: Inhibition of human PRMT1 by fluorescence-based SAHH-coupled assay.
Test [10] addresses T1, Protein arginine N-methyltransferase 5. The experiment in a line: Inhibition of PRMT5 (unknown origin) by AlphaLISA assay.
Test [11] shares this target. The experiment in a line: Inhibition of PRMT5 human PRMT5 using Biotinylated H4 derived peptide and [3H]-SAM as substrate by radioactive methylation assay.
In test [12] the test system is A-375. Briefly: Anticancer activity against human A-375 cells in xenograft model assessed as tumor growth inhibition at 10 mg/kg, qd on a 4 day-on/3 day-off schedule for 26 days relative to control. The note with it: A-375, 624 h, time 26 day, read-out: TGI. The class given is functional. Background: A xenograft is tissue or cells of one species grown in another, often human tumour cells in immunodeficient mice.

For test [13], the system named is Z-138. Briefly: Antiproliferative activity against human Z138 cells assessed as cell growth inhibition measured every 4 days upto 8 days by Cell Titer-Glo Luminescent Cell Viability kit method. The test is classed as functional, cell-based. On the technique in general: ATP-based viability assays read luminescence as a measure of living cells.

T1 sequence (O14744 whole entry): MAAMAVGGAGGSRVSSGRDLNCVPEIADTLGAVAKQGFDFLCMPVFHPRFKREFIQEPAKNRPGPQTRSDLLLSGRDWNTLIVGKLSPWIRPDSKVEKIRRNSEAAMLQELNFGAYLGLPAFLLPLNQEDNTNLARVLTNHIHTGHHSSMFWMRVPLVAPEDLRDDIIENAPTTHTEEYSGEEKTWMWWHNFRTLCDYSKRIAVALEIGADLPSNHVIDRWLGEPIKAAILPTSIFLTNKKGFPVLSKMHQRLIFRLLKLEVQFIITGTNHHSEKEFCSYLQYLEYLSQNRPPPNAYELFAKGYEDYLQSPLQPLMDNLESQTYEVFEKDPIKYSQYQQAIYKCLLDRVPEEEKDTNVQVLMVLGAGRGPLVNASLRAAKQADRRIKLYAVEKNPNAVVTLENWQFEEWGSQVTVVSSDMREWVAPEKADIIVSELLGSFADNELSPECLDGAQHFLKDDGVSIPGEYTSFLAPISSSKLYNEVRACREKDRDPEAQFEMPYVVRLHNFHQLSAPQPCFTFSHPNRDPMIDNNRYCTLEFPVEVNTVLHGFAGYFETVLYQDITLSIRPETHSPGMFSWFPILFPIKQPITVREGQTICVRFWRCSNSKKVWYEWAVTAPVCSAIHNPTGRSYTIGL
T2 sequence (Q99873 whole entry): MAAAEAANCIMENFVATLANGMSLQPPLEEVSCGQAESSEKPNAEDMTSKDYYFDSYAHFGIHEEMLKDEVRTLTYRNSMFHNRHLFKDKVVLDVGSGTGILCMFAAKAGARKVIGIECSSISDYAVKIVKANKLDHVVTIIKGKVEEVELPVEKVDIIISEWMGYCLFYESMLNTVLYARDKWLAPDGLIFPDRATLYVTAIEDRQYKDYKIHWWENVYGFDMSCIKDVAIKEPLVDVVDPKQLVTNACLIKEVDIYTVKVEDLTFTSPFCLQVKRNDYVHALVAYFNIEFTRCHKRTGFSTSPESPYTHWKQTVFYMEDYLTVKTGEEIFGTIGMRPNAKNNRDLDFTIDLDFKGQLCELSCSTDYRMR

Turning to `Nc1cccc(-c2cn(CC(O)CN3CCc4ccccc4C3)nn2)c1` (centres undefined), in test [1], the IC50 was determined as 34 µM. As for `COC(=O)c1ccccc1NC(=O)CCN1CCc2ccccc2C1`, the IC50 in test [2] came to 34.1 µM. On to `COc1cc(Br)cc(/C=C2\SC(c3ccc(C)cc3)=NC2=O)c1O`, for which, in test [3], half-maximal inhibition (IC50) was put at 6.6 µM. As to `Nc1ncnc2c1ccn2[C@@H]1O[C@H]([C@H](O)c2ccccc2)[C@@H](O)[C@H]1O`, the IC50 in test [4] was found to be 0.0315 µM. Regarding `OC(CN1CCc2ccccc2C1)Cn1cc(-c2cccc(NC3CCOCC3)c2)nn1` (centres undefined), in test [1], the IC50 worked out at 2.4 µM. As to `C[C@@](O)(c1ccc(Cl)cc1)[C@H]1O[C@@H](n2ccc3c(N)ncnc32)[C@H](O)[C@@H]1O`, the IC50 in test [4] turned out to be 0.044 µM. As for `Cc1ccc(C2=NC(=O)/C(=C/c3ccc(O)c(O)c3)S2)cc1`, the IC50 in test [5] amounted to 10 µM; in test [3], 0.77 µM. With `N=C(N)NCCC[C@H](N)C(=O)NCC(=O)N[C@H](CCNC(=N)NCCSC[C@H]1O[C@@H](n2cnc3c(N)ncnc32)[C@H](O)[C@@H]1O)C(N)=O`, the IC50 in test [6] was found to be 0.0028 µM; in [7], 0.83 µM; in test [8], 0.00042 µM; in test [9], 5.9 µM. In turn, `COc1cccc(/C=N/c2ccc(O)c(-c3nc4cc(C)ccc4o3)c2)c1O` showed an IC50 in test [10] of 8.1 µM.

Regarding `Cc1ccc2[nH]c3c(c2c1)CCCC3NCCCOc1ccc(F)cc1` (centres undefined), in test [11], the IC50 stood at 1.7 µM.

On to `O=[N+]([O-])c1cccc(-c2cn(CC(O)CN3CCc4ccccc4C3)nn2)c1` (centres undefined), for which the IC50 in test [1] turned out to be 5.5 µM.

Take `COc1ccc(OC)c(NC(=O)CSc2nnc3c4ccccc4c4ccccc4c3n2)c1`: in test [10], the IC50 was 27 µM.

As to `C[C@@H]1[C@H](O)[C@@H](CSCCCNC(=N)NCCCC[C@@H](N)C(N)=O)O[C@H]1n1cnc2c(N)ncnc21`, the IC50 in [7] was 20 µM; in [9] it was 3 µM. Turning to `COC(=O)c1ccccc1NC(=O)CSc1nc2ccc(CO)cc2[nH]1`, the IC50 in test [11] stood at 0.33 µM. Take `CCOC(=O)c1c(NC(=O)CSc2nnc3c4ccccc4n(CCc4ccccc4)c3n2)sc2c1CCN(C)C2`: half-maximal inhibition in [10] (IC50) was put at 6.5 µM. In turn, `COc1cc(Cl)cc(/C=C2\SC(c3ccc(C)cc3)=NC2=O)c1O` returned an IC50 in test [3] of 13.9 µM. On to `CCc1ccc2oc(-c3cc(/N=C/c4cccc(C)c4O)ccc3O)nc2c1`, for which the IC50 in test [10] was found to be 60 µM. As for `Nc1ncnc2c1ccn2[C@@H]1O[C@H]([C@H](O)c2ccc(Cl)cc2)[C@@H](O)[C@H]1O`, the inhibition in vivo at 10 mg/kg in [12] turned out to be 64%. For the same molecule, the IC50 in test [4] was determined as 0.0108 µM. For `CCN(CC)CCNC1CCCc2c1[nH]c1ccc(C)cc21` (centres undefined), the IC50 in [11] is 5.7 µM. As for `OC(CN1CCc2ccccc2C1)Cn1cc(-c2cccc(NC3CCC3)c2)nn1` (centres undefined), the figures for the IC50 in [1] and in test [13] were 0.72 µM and 2.6 µM, respectively. Regarding `N=C(N)NCCC[C@H](N)C(=O)NCC(=O)N[C@H](CCNC(=N)NCSC[C@H]1O[C@@H](n2cnc3c(N)ncnc32)[C@H](O)[C@@H]1O)C(N)=O`, the IC50 in test [7] turned out to be 0.59 µM; in test [9], 1.7 µM.

One may read the IC50 as the concentration that gives 50% inhibition.
